Measurements taken from patent US10532040B2, “Methods of treating cancer with herbacetin” (REGENTS OF THE UNIVERSITY OF MINNESOTA, priority 2011, dated 2020).

Legend:
[1] = tested on: activator protein-1 (AP-1); assay: AP-1 reporter activity in HCT116 cells; type: cell-based; details: HCT116 cells treated 48 h
Description: FIGS. 3A-3H. Anticancer effect of herbacetin. (a) The effect of herbacetin on ODC activity in colon cancer cell lines was measured as the release of CO2 from L-[1-C^14] ornithine. […] (b) The effect of herbacetin and DFMO on the growth of colon cancer cells and (c) TPA-induced JB6 cell growth was compared. Cells were incubated for 72 h and growth was estimated using the MTS assay. (d) The effect of herbacetin on anchorage independent HCT116 colon cancer cell growth and (e) TPA-induced JB6 cell transformation was assessed. Cells were incubated for 2 weeks and then colonies were counted using a microscope and the Image-Pro PLUS (v.6) computer software program. The effect of herbacetin on AP-1 reporter activity in (f) HCT116 colon cancer cells and (g) TPA-induced AP-1 reporter activity in JB6 mouse epidermal cells was analyzed using the substrates included in the reporter assay system. […] (h) The effect of herbacetin on the phosphorylation of ERK1 and ERK2 in HCT116 colon cancer cells was determined by Western blotting. […]
We determined whether herbacetin affected the reporter activity of the MAP kinase target transcription factor, activator protein-1 (AP-1), in HCT116 cells or JB6 cells stimulated with TPA. […] AP-1 reporter activity was then measured (FIG. 3f, g) and the activity was attenuated by herbacetin in colon cancer cells and in TPA-activated JB6 cells. […]

[2] = tested on: HCT116 colon cancer cells; assay: cDNA microarray of HCT116 colon cancer cells; type: cell-based; details: HCT116, 1 or 2 days herbacetin
Description: FIGS. 7A-7D. Profiling of gene expression in HCT116 colon cancer cells treated with herbacetin 1 or 2 days was assessed by microarray. […] (d) RT-PCR validation of differentially expressed genes.
RNA samples from cells treated or not treated for 1 or 2 days with herbacetin were used. Data were analyzed using hierarchical clustering and the DAVID database as previously described (Sturn, A., Quackenbush, J. & Trajanoski, Z. Genesis: cluster analysis of microarray data. Bioinformatics 18, 207-208 (2002); Huang da, W., Sherman, B. T. & Lempicki, R. A. Systematic and integrative analysis of large gene lists using DAVID bioinformatics resources. Nat Protoc 4, 44-57 (2009)).

HCT116 cells = assay: HCT116 xenograft in athymic nude mice; type: in vivo, mouse
Description: Athymic nude mice were inoculated in the right flank with HCT116 cells. Tumors were allowed to grow to an average of 40 mm^3 and then mice were divided into four equal groups with the same average tumor volume (FIG. 10). Treatment was initiated on Day 8 and continued to Day 20. […] No difference between treatment with 0.4 mg/kg B.W. herbacetin, 2 mg/kg B.W herbacetin or 200 mg/kg DFMO was observed.

[3] = target: T1, ODC (WT, D44A, D243A, E384A) (Homo sapiens, UniProt P11926, D44A); assay: pull-down assay with ectopically expressed ODC mutants in HCT116 cells; type: binding; details: D44A mutant compared with D243A, E384A and WT
T1 construct: expressed in transfected cells; host or cells: HCT116 colon cancer cells
T1 sequence (P11926 1-461 D44A): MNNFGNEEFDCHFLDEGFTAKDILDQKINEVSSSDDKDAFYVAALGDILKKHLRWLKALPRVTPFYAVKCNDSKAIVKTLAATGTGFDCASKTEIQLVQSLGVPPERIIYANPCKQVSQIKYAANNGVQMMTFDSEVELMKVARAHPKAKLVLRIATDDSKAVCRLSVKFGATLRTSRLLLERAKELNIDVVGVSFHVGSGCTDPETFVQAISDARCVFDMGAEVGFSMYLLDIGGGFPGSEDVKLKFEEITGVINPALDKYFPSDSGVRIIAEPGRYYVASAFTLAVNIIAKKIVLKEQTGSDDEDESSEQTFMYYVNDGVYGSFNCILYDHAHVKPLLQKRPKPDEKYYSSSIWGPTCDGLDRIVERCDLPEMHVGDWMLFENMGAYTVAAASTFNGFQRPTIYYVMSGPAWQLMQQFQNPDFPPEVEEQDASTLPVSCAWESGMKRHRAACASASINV
Description: A recombinant human ODC protein (200 ng) or total cell lysates (500 μg) to were incubated with herbacetin Sepharose 4B (or Sepharose 4B only as a control) beads (50 μl, 50% slurry) in reaction buffer (50 mM Tris pH 7.5, 5 mM EDTA, 150 mM NaCl, 1 mM DTT, 0.01% NP40, 2 μg/mL bovine serum albumin). After incubation with gentle rocking overnight at 4° C., the beads were washed 5 times with buffer (50 mM Tris pH 7.5, 5 mM EDTA, 150 mM NaCl, 1 mM DTT, 0.01% NP40) and binding was determined by Western blotting.

JB6 epidermal cells = assay: TPA-induced JB6 cell transformation; type: cell-based, mouse; details: 2 weeks
Description: FIGS. 3A-3H. Anticancer effect of herbacetin. (a) The effect of herbacetin on ODC activity in colon cancer cell lines was measured as the release of CO2 from L-[1-C^14] ornithine. […] (b) The effect of herbacetin and DFMO on the growth of colon cancer cells and (c) TPA-induced JB6 cell growth was compared. Cells were incubated for 72 h and growth was estimated using the MTS assay. (d) The effect of herbacetin on anchorage independent HCT116 colon cancer cell growth and (e) TPA-induced JB6 cell transformation was assessed. Cells were incubated for 2 weeks and then colonies were counted using a microscope and the Image-Pro PLUS (v.6) computer software program. The effect of herbacetin on AP-1 reporter activity in (f) HCT116 colon cancer cells and (g) TPA-induced AP-1 reporter activity in JB6 mouse epidermal cells was analyzed using the substrates included in the reporter assay system. Data are represented as means±S.D. of triplicate values from three independent experiments and the asterisk (*) indicates a significant (p<0.05) effect of herbacetin or DFMO compared to untreated or TPA-treated controls. (h) The effect of herbacetin on the phosphorylation of ERK1 and ERK2 in HCT116 colon cancer cells was determined by Western blotting. Similar results were observed from two independent experiments.

Q: What does the source list for `O=c1c(O)c(-c2ccc(O)cc2)oc2c(O)c(O)cc(O)c12` [herbacetin, 3,5,7,8,4′-Pentahydroxyflavone]?
A: AP-1 reporter activity [1]: attenuated; gene expression [2]: significantly altered genes involved in proliferation, cell cycle, apoptosis and metabolic processes; potency as therapeutic agent relative to DFMO (HCT116 cells; based on concentration): much more potent; tumor volume, comparison between treated groups (HCT116 cells; herbacetin 0.4 mg/kg, 2 mg/kg, DFMO 200 mg/kg): No difference; tumor volume, treated groups vs vehicle-treated group (HCT116 cells; herbacetin 0.4 or 2 mg/kg B.W., DFMO 200 mg/kg, Day 8 to Day 20): vehicle-treated group were significantly large in volume than any of the three treated groups; binding affinity of ODC mutant with herbacetin [3]: most reduced binding affinity; TPA-induced neoplastic transformation of JB6 epidermal cells (JB6 epidermal cells): markedly suppressed
